Source: patent publication US20150224164A1, “TREATMENT OF AUTISM SPECTRUM DISORDERS USING GLYCYL-L-2-METHYLPROLYL-L-GLUMATIC ACID” (Neuren Pharmaceuticals Limited, priority 2013, published 2015)
Entries after “also recorded” stand apart in the source; their conditions may differ. Where a SMILES comes first, the peptide text is derived from it.

Experiments:
[1] = system: subjects with Rett Syndrome; assay: Placebo controlled study in subjects with Rett Syndrome (Example 15); format: in vivo, human
Text: Thirty subjects with Rett Syndrome are recruited. Subjects are female and aged between […] (Mean=12.1 SD=4.4). All subjects have an IQ<60 and mutations of the MECP2 gene. Subjects also show ether spike activity in the EEG or an increase in lower frequency bands of the EEG as detected by Fast Fourier Transform (FFT). Subjects are instructed that concomitant medications are to be stable for at least six weeks prior to study. Subjects receiving medication to treat signs of inattention are tested in the morning and instructed to take their medication in the afternoon. Subjects with QTc interval >451 msec are excluded.
The study is a randomized double blind placebo controlled parallel study with three doses of either placebo, 10 mg/kg T.I.D oral G-2-MePE for five days, or 30 mg/kg T.I.D. oral G-2-MePE.
Subjects are tested at baseline using the following instruments: The Rett Syndrome Natural History/Clinical Severity Scale, Aberrant Behavior Checklist Community Edition (ABC), Vinelands, Clinical Global Impression of Severity (CGI-S) and their carers completed the Caregiver Strain Questionnaire (CSQ).
Subjects are brought into clinic on an inpatient basis to enable initial baseline recordings of EEG, ECG and respiratory rate continuously for 24 hours using polysomnography technology. Hand movements are also recorded using the Q-Sensor™. Derived EEG measures include: spikes per unit time in the EEG, overall power of frequency bands of the EEG, QTc and heart rate variability (HRV), and respiratory irregularities.
Adverse events are also recorded using standard safety measures and the SMURF elicitation of adverse events
Statistically, the effect of treatment with G-2-MePE is analysed by conducting a repeated analysis of covariance (ANCOVA) on the effect of treatment on change from baseline scores.

[2] = system: MeCP2 knockout mice; assay: Nocturnal locomotor activity (Example 10); format: in vivo, mouse; conditions: after 6 weeks; 20 mg/kg i.p. daily
Experimental: Spontaneous motor activity is measured by using an infrared beam-activated movement-monitoring chamber (Opto-Varimax-MiniA; Columbus Instruments, Columbus, Ohio). For each experiment, a mouse is placed in the chamber at least 3 h before recordings started. Movement is monitored during the normal 12-h dark cycle (7 p.m. to 7 a.m.). One dark cycle per animal per time point is collected.

[3] = system: heterozygous Shank3-deficient mice; assay: Social interaction and ultrasonic vocalization, Shank3-deficient mice (Example 13); format: in vivo, mouse; conditions: 15 or 60 mg/kg oral b.i.d. 14 days; vs placebo
Experimental: 1 to 3 month old wild type and heterozygous Shank3-deficient mice are divided into 4 treatment groups: placebo treated wild-type, placebo treated Shank3-deficient group and two Shank3-deficient G-2-MePE treated groups. The animals are given placebo (water) or G-2-MePE formulated in water administered orally, b.i.d for 14 days. G-2-MePE is administered at two doses: 15 or 60 mg/kg.
Behavioral assessments are made at several time points, and include analysis of social interactions and ultrasonic social communication, in line with the methodology described by Bozdagi et al. Briefly, male-female social interactions in each treatment group are evaluated. The subject males are group-housed and individually tested in clean cages with clean litter. Each testing session lasts 5 min. […] Videos from the male subjects are subsequently scored by an investigator uninformed of the subject's genotype and treatment group on measures of nose-to-nose sniffing, nose-to-anogenital sniffing and sniffing of other body regions, using Noldus Observer software (Noldus Information Technology, Leesburg, Va., USA). Ultrasonic vocalizations are identified manually by two highly trained investigators blinded to genotype/treatment group information, and summary statistics are calculated using the Avisoft package. […] Data are analysed using an unpaired Student's t-test.

[4] = system: fmr1 knockout mice; assay: Social behavior, bouts of sniffing, fmr1 knockout mice; format: in vivo, mouse; conditions: 100 mg/kg i.p. 28-day
Experimental: G-2-MePE was administered at the dose of 100 mg/kg i.p. in 0.1 ml saline, once daily for 28 days. Vehicle-treated animals were injected with 0.1 ml saline daily for 28 days. Thereafter, drug or vehicle treatments were stopped and animals were tested on successive days until all tests were completed. Finally, the animals were sacrificed for determining expression of pAkt and pERK Mice are a social species, which engage in easily scored social behaviors including approaching, following, sniffing, allogrooming, aggressive encounters, sexual interactions, parental behaviors, nesting and sleeping in a group huddle. In the present studies, social recognition and social memory in mice were evaluated by assessing the amount of time spent sniffing a novel mouse upon repeated exposures, to induce familiarity, and reinstatement of high levels of sniffing when a novel stimulus animal is introduced.

[5] = system: gastrointestinal cells; conditions: cited from earlier work
[6] = system: central nervous system; conditions: after oral administration; cited from earlier work
[7] = 30 mg/kg T.I.D. oral vs placebo

C[C@@]1(C(=O)N[C@@H](CCC(=O)O)C(=O)O)CCCN1C(=O)CN [Example G-2-MePE, Glycyl-L-2-methylprolyl-L-glutamic acid] (HELM PEPTIDE1{G.[C[C@@]1(C(=O)[*:2])CCCN1[*:1]].E}$$$$V2.0)
EEG spike activity [1, 7]: decreases spike activity
power of the delta band of the EEG [1, 7]: decreases the power of the delta band
subscales Nonverbal Communication, Epilepsy/Seizures, Hand use [1, 7]: significant effects
Serious Adverse Events ([1]; 10 or 30 mg/kg T.I.D. oral): No Serious Adverse Events
adverse events / tolerability ([1]; 10 or 30 mg/kg T.I.D. oral): no more adverse events than are present during treatment with placebo; also recorded: well tolerated
increases in QTC ([1]; 10 or 30 mg/kg T.I.D. oral): No instances of increases in QTC
respiratory rate or heart rate variability ([1]; 10 or 30 mg/kg T.I.D. oral): No effects
Rett Syndrome Natural History/Clinical Severity Score, overall ([1]; human, in vivo): no significant effect overall
spikes per unit time in the EEG, overall ([1]; overall treatment effect): significant overall reduction
total hand movements per twenty-four hour period (Q-Sensor) ([1]; significant for 30 mg/kg T.I.D.): reduces total hand movements
nocturnal locomotor activity levels [2]: elevates these levels
cumulative duration of total social sniffing [3]: significant increase
number of ultrasonic vocalizations [3]: increased number of ultrasonic vocalizations
heightened sniffing of the presented mouse ([4]; fmr1 KO): nullified
sniffing ([4]; wild-type group): no significant effect
degradation by gastrointestinal cells [5]: not degraded
uptake by gastrointestinal cells [5]: taken up
activity in the central nervous system [6]: active in the central nervous system
